Data on 7 compounds can be found in PubChem BioAssay AID1919000 (Molecular Pharmacology Branch, DTP, NCI, 2023).

The test system of the test is 653999-131-R-J2-PDC complex spheroids, growth % test/control. The test can be described thus: Anticancer human tumor 653999-131-R-J2-PDC patient-derived lung adenocarcinoma cell line growth inhibition [AhR]. The settings on record: for viability, T/C: stronger effect = lower value. In a few lines: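 Spheroids combined tumor cells with HUVEC endothelial cells and human MSCs as stroma. AhR antagonists were paired with standard or investigational drugs, each dosed in half-log steps down from near clinical Cmax, or from 10 microM where Cmax was unknown.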

The mark [1] stands for this setting: curve of first compound, second compound 0.1 µM.
[2] abbreviates: curve of first compound, second compound 0.316 µM.
Where [3] appears, read: curve of first compound, second compound 1 µM.
[4] abbreviates: curve of first compound, second compound 3.16 µM.
Where [5] appears, read: curve of first compound, second compound 10 µM.
Where [6] appears, read: second compound 0.1 µM, first compound 0.0316 µM.
[7] abbreviates: second compound 0.1 µM, first compound 0.1 µM.
Setting [8] is: second compound 0.1 µM, first compound 0.316 µM.
Where [9] appears, read: second compound 0.1 µM, first compound 1 µM.
Where [10] appears, read: second compound 0.1 µM, first compound 3.16 µM.
[11] abbreviates: second compound 0.1 µM, first compound 10 µM.
The mark [12] stands for this setting: second compound 0.316 µM, first compound 0.0316 µM.
Where [13] appears, read: second compound 0.316 µM, first compound 0.1 µM.
The mark [14] stands for this setting: second compound 0.316 µM, first compound 0.316 µM.
The mark [15] stands for this setting: second compound 0.316 µM, first compound 1 µM.
Setting [16] is: second compound 0.316 µM, first compound 3.16 µM.
[17] abbreviates: second compound 0.316 µM, first compound 10 µM.
[18] abbreviates: second compound 1 µM, first compound 0.0316 µM.
Setting [19] is: second compound 1 µM, first compound 0.1 µM.
[20] abbreviates: second compound 1 µM, first compound 0.316 µM.
[21] abbreviates: second compound 1 µM, first compound 1 µM.
[22] abbreviates: second compound 1 µM, first compound 3.16 µM.
[23] abbreviates: second compound 1 µM, first compound 10 µM.
[24] abbreviates: second compound 3.16 µM, first compound 0.0316 µM.
[25] abbreviates: second compound 3.16 µM, first compound 0.1 µM.
The mark [26] stands for this setting: second compound 3.16 µM, first compound 0.316 µM.
Where [27] appears, read: second compound 3.16 µM, first compound 1 µM.
Setting [28] is: second compound 3.16 µM, first compound 3.16 µM.
The mark [29] stands for this setting: second compound 3.16 µM, first compound 10 µM.
The mark [30] stands for this setting: second compound 10 µM, first compound 0.0316 µM.
[31] abbreviates: second compound 10 µM, first compound 0.1 µM.
Setting [32] is: second compound 10 µM, first compound 0.316 µM.
The mark [33] stands for this setting: second compound 10 µM, first compound 1 µM.
The mark [34] stands for this setting: second compound 10 µM, first compound 3.16 µM.
[35] abbreviates: second compound 10 µM, first compound 10 µM.

“And” between values parts separate entries of the source, which are not always exact repeats. Equal values may be shown once.
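Also: spheroids exposed to agents for seven days.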
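For viability, T/C in this document: 100% = DMSO vehicle control viability.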

On to `CCN(c1cc(-c2ccc(CN3CCOCC3)cc2)cc(C(=O)NCc2c(C)cc(C)[nH]c2=O)c1C)C1CCOCC1` + Cc1cncc(-c2nc(NCCc3c[nH]c4ccccc34)c3ncn(C(C)C)c3n2)c1, for which the IC50 is, setting by setting: under setting [1], more than 3 µM; under setting [2], more than 3 µM; under setting [3], more than 3 µM; under setting [4], more than 3 µM; under setting [5], 0.165 µM. For the same compound, the viability, T/C (second compound 0.1 µM, first compound 0.00949 µM) was 96.7%; the viability, T/C (second compound 0.1 µM, first compound 0.03 µM) was 105%; the viability, T/C (second compound 0.1 µM, first compound 0.0949 µM) is 104%; the viability, T/C (second compound 0.1 µM, first compound 0.3 µM) was 94.6%; the viability, T/C (second compound 0.1 µM, first compound 0.949 µM) is 97.9%; the viability, T/C (second compound 0.1 µM, first compound 3 µM) was 102%. In addition, the viability, T/C (second compound 0.316 µM, first compound 0.00949 µM) is 121%; the viability, T/C (second compound 0.316 µM, first compound 0.03 µM) is 122%; the viability, T/C (second compound 0.316 µM, first compound 0.0949 µM) is 106%; the viability, T/C (second compound 0.316 µM, first compound 0.3 µM) is 99.8%; the viability, T/C (second compound 0.316 µM, first compound 0.949 µM) was 104%; the viability, T/C (second compound 0.316 µM, first compound 3 µM) was 103%. In addition, the viability, T/C runs as follows: (second compound 1 µM, first compound 0.00949 µM) 99.7%; (second compound 1 µM, first compound 0.03 µM) 116%; (second compound 1 µM, first compound 0.0949 µM) 108%; (second compound 1 µM, first compound 0.3 µM) 114%; (second compound 1 µM, first compound 0.949 µM) 104%; (second compound 1 µM, first compound 3 µM) 100%. For the same compound, the viability, T/C is, setting by setting: (second compound 3.16 µM, first compound 0.00949 µM) 105%; (second compound 3.16 µM, first compound 0.03 µM) 116%; (second compound 3.16 µM, first compound 0.0949 µM) 104%; (second compound 3.16 µM, first compound 0.3 µM) 96.2%; (second compound 3.16 µM, first compound 0.949 µM) 98.8%; (second compound 3.16 µM, first compound 3 µM) 113%. Besides, the viability, T/C (second compound 10 µM, first compound 0.00949 µM) is 62%; the viability, T/C (second compound 10 µM, first compound 0.03 µM) was 53.3%; the viability, T/C (second compound 10 µM, first compound 0.0949 µM) was 51.6%; the viability, T/C (second compound 10 µM, first compound 0.3 µM) is 50.6%; the viability, T/C (second compound 10 µM, first compound 0.949 µM) was 37.8%; the viability, T/C (second compound 10 µM, first compound 3 µM) is 28.6%.
Regarding `Cc1cncc(-c2nc(NCCc3c[nH]c4ccccc34)c3ncn(C(C)C)c3n2)c1`, the viability, T/C by setting is: (compound 0.1 µM) 92.6% [middle of 20 runs]; (compound 0.316 µM) 97% [middle of 20 runs]; (compound 1 µM) 101% [middle of 20 runs]; (compound 10 µM) 52% [middle of 20 runs].
In the case of `COc1ccc([C@@H](O)c2cc(-c3ncnc4cc(N5CCOCC5)ccc34)c(F)cc2Cl)nn1` + Cc1cncc(-c2nc(NCCc3c[nH]c4ccccc34)c3ncn(C(C)C)c3n2)c1, the concentration for half-maximal inhibition (IC50) was 8.89 µM under setting [1]; more than 10 µM under setting [2]; more than 10 µM under setting [3]; more than 10 µM under setting [4]; more than 10 µM under setting [5]. In addition, the viability, T/C is 97.7% under setting [6]; 121% under setting [7]; 103% under setting [8]; 82.4% under setting [9]; 72.5% under setting [10]; 46.7% under setting [11]. In addition, the viability, T/C under setting [12] is 121%; the viability, T/C under setting [13] was 122%; the viability, T/C under setting [14] is 102%; the viability, T/C under setting [15] was 99.9%; the viability, T/C under setting [16] was 73%; the viability, T/C under setting [17] was 54.4%. Further, the viability, T/C by setting is: under setting [18], 116%; under setting [19], 123%; under setting [20], 122%; under setting [21], 101%; under setting [22], 87.8%; under setting [23], 61%. Besides, the viability, T/C was 125% under setting [24]; 119% under setting [25]; 138% under setting [26]; 93% under setting [27]; 83.3% under setting [28]; 60.5% under setting [29]. Also, the viability, T/C reads like this: under setting [30], 55.7%; under setting [31], 58.9%; under setting [32], 66.2%; under setting [33], 65.7%; under setting [34], 66.3%; under setting [35], 55.5%.
Consider `CC(C)CC(NC(=O)C(Cc1ccccc1)NC(=O)c1cnccn1)B(O)O` (centres undefined), for which the viability, T/C is, setting by setting: (compound 0.000949 µM) 112% and 106% and 110%; (compound 0.003 µM) 118% and 114% and 124%; (compound 0.00949 µM) 107% and 96.5% and 60.7%; (compound 0.03 µM) 30.4% and 28.9% and 21.5%; (compound 0.0949 µM) 11.3% and 14.9% and 9.51%; (compound 0.3 µM) 3.46% and 4.18% and 3.51%. Moreover, the IC50 (curve of compound) is 0.0224 µM and 0.0211 µM and 0.0124 µM.
For `CCN(c1cc(-c2ccc(CN3CCOCC3)cc2)cc(C(=O)NCc2c(C)cc(C)[nH]c2=O)c1C)C1CCOCC1`, the viability, T/C reads like this: (compound 0.00949 µM) 105% and 101% and 115%; (compound 0.03 µM) 104% and 95.7% and 106%; (compound 0.0949 µM) 114% and 88.5% and 110%; (compound 0.3 µM) 102% and 89.3% and 100%; (compound 0.949 µM) 108% and 98.8% and 96.9%; (compound 3 µM) 94.6% and 104% and 96.3%. Also, the IC50 (curve of compound) was more than 3 µM.
`O=C(c1cc(Cc2n[nH]c(=O)c3ccccc23)ccc1F)N1CCN(C(=O)C2CC2)CC1` + Cc1ccccc1N=Nc1ccc(NC(=O)c2ccnn2C)c(C)c1: the IC50 was more than 10 µM under setting [1]; more than 10 µM under setting [2]; more than 10 µM under setting [3]; more than 10 µM under setting [4]; more than 10 µM under setting [5]. The viability, T/C by setting is: under setting [6], 106%; under setting [7], 101%; under setting [8], 91%; under setting [9], 92.7%; under setting [10], 88.4%; under setting [11], 77.6%. Further, the viability, T/C is 96.1% under setting [12]; 101% under setting [13]; 95.5% under setting [14]; 89.3% under setting [15]; 89.6% under setting [16]; 84.3% under setting [17]. Further, the viability, T/C reads like this: under setting [18], 94%; under setting [19], 104%; under setting [20], 94.8%; under setting [21], 84.2%; under setting [22], 91.8%; under setting [23], 82%. Also, the viability, T/C under setting [24] was 95.1%; the viability, T/C under setting [25] is 94.9%; the viability, T/C under setting [26] is 91.5%; the viability, T/C under setting [27] was 87.1%; the viability, T/C under setting [28] was 85%; the viability, T/C under setting [29] was 76.2%. The viability, T/C reads like this: under setting [30], 89.8%; under setting [31], 88.3%; under setting [32], 87%; under setting [33], 82.3%; under setting [34], 84.4%; under setting [35], 72.8%.
`Nc1ccn(C2OC(CO)C(O)C2(F)F)c(=O)n1` (centres undefined): the viability, T/C is, setting by setting: (compound 0.0316 µM) 69.1% and 74.2% and 70.3%; (compound 0.1 µM) 63.2% and 70.2% and 62.9%; (compound 0.316 µM) 50.8% and 61.3% and 51.9%; (compound 1 µM) 41.5% and 56.2% and 43.5%; (compound 3.16 µM) 37.6% and 50.8% and 41.3%; (compound 10 µM) 32.7% and 46.7% and 36.1%.
